According to ChEMBL document CHEMBL3864148, “Synthesis of linear and angular aryl-morpholino-naphth-oxazines, their DNA-PK, PI3K, PDE3A and antiplatelet activity” (Bioorg Med Chem Lett, 2016):

Molecular target: T1, Phosphatidylinositol 4,5-bisphosphate 3-kinase catalytic subunit delta isoform (Homo sapiens) (UniProt O00329)
T1 sequence (whole entry): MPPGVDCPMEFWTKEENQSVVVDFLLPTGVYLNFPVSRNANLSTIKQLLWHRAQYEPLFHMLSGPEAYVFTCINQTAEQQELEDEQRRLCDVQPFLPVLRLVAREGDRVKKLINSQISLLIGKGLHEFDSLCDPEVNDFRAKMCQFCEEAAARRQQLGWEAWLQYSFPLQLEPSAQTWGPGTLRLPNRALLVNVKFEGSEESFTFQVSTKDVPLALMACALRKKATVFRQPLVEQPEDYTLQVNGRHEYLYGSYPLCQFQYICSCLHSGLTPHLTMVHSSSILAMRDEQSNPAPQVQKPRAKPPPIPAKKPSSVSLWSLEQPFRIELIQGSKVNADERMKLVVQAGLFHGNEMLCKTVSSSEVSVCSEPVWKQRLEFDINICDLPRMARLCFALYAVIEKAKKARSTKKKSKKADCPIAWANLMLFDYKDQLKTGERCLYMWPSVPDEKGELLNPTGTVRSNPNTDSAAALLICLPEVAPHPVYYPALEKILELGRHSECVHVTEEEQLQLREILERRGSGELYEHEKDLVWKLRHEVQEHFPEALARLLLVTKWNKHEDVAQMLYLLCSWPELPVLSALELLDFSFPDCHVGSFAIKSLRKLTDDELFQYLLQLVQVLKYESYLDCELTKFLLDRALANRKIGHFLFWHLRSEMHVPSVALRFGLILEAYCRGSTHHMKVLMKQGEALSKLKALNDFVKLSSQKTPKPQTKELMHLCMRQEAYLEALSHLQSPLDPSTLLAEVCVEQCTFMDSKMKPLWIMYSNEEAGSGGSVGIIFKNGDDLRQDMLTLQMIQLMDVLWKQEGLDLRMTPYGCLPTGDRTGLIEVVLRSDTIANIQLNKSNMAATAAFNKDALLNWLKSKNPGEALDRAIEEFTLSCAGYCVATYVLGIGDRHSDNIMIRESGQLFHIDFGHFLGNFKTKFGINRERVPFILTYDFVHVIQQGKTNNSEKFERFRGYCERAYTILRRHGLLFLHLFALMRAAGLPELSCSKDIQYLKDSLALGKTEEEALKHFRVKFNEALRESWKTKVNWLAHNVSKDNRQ
Assay: Inhibition of p110delta (unknown origin) assessed as decrease in ATP consumption at 10 uM after 60 mins by Kinase-Glo assay relative to control

Structure (SMILES) | inhibition
O=c1nc(N2CCOCC2)oc2ccc3cc(-c4ccc(Cl)cc4)ccc3c12 | -1%
COc1ccc(-c2cc3c(=O)nc(N4CCOCC4)oc3c3ccccc23)cc1 | 9%
O=c1nc(N2CCOCC2)oc2c1cc(-c1ccccc1)c1ccccc12 | 3%
O=c1nc(N2CCOCC2)oc2cc3ccccc3cc12 | -10%
O=c1nc(N2CCOCC2)oc2c1cc(-c1cccc3c1sc1ccccc13)c1ccccc12 | 0%
O=c1nc(N2CCOCC2)oc2c(-c3ccc(Cl)cc3)c3ccccc3cc12 | 52%
O=c1nc(N2CCOCC2)oc2c1ccc1ccccc12 | 12%
COc1ccc(-c2ccc3c(ccc4oc(N5CCOCC5)nc(=O)c43)c2)cc1 | 0%
O=c1nc(N2CCOCC2)oc2ccc3cc(-c4ccccc4)ccc3c12 | -1%
O=c1nc(N2CCOCC2)oc2ccc3ccccc3c12 | 8%
O=c1nc(N2CCOCC2)oc2c1cc(-c1cccc3c1oc1ccccc13)c1ccccc12 | 0%

Molecular target: T2, Phosphatidylinositol 4,5-bisphosphate 3-kinase catalytic subunit beta isoform (Homo sapiens, UniProt P42338)
Assay: Inhibition of p110beta (unknown origin) assessed as decrease in ATP consumption after 60 mins by Kinase-Glo assay
Target sequence in this assay (P42338 whole entry, canonical isoform): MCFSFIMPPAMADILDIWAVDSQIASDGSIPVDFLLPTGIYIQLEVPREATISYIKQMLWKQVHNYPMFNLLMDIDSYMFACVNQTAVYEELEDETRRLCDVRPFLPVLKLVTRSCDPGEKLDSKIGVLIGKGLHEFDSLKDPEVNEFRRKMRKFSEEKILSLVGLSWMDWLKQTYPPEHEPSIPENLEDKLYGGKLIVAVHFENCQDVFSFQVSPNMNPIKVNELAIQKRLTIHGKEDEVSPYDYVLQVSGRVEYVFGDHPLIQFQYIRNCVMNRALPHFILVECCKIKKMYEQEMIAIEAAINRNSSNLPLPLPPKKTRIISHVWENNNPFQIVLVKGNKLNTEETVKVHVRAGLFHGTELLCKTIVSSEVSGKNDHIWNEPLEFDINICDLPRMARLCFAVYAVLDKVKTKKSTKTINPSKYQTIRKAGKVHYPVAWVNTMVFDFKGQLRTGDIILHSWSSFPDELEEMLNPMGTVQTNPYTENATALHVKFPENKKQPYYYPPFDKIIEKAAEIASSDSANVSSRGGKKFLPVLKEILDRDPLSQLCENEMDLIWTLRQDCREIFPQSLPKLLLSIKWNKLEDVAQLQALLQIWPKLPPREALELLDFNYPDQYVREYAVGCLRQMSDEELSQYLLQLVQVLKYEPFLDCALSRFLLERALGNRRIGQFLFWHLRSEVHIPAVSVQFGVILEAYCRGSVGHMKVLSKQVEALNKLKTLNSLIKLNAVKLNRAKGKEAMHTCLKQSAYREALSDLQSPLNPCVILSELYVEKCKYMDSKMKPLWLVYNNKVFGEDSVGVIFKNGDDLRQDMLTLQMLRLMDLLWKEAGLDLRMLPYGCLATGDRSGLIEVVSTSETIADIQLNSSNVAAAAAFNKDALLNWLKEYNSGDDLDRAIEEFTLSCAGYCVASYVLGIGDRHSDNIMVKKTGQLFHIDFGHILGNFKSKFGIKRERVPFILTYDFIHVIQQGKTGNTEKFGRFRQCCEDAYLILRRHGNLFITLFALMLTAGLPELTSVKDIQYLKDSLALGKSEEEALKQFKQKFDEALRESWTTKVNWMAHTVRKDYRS

Structure (SMILES) | IC50
COc1ccc(-c2c3ccccc3cc3c(=O)nc(N4CCOCC4)oc23)cc1 | > 50 µM
O=c1nc(N2CCOCC2)oc2c(-c3ccccc3)c3ccccc3cc12 | > 50 µM

Molecular target: T3, Phosphatidylinositol 4,5-bisphosphate 3-kinase catalytic subunit delta isoform (Homo sapiens, UniProt O00329)
T3 sequence (O00329 whole entry): T1 sequence (whole entry)
Assay: Inhibition of p110delta (unknown origin) assessed as decrease in ATP consumption after 60 mins by Kinase-Glo assay

Structure (SMILES) | IC50
COc1ccc(-c2c3ccccc3cc3c(=O)nc(N4CCOCC4)oc23)cc1 | 5.6 µM
O=c1nc(N2CCOCC2)oc2c(-c3ccccc3)c3ccccc3cc12 | 7.7 µM

Molecular target: T4, Phosphatidylinositol 4,5-bisphosphate 3-kinase catalytic subunit gamma isoform (Homo sapiens, UniProt P48736)
Assay: Inhibition of p110gamma (unknown origin) assessed as decrease in ATP consumption after 60 mins by Kinase-Glo assay
Target sequence in this assay (P48736 whole entry, canonical isoform): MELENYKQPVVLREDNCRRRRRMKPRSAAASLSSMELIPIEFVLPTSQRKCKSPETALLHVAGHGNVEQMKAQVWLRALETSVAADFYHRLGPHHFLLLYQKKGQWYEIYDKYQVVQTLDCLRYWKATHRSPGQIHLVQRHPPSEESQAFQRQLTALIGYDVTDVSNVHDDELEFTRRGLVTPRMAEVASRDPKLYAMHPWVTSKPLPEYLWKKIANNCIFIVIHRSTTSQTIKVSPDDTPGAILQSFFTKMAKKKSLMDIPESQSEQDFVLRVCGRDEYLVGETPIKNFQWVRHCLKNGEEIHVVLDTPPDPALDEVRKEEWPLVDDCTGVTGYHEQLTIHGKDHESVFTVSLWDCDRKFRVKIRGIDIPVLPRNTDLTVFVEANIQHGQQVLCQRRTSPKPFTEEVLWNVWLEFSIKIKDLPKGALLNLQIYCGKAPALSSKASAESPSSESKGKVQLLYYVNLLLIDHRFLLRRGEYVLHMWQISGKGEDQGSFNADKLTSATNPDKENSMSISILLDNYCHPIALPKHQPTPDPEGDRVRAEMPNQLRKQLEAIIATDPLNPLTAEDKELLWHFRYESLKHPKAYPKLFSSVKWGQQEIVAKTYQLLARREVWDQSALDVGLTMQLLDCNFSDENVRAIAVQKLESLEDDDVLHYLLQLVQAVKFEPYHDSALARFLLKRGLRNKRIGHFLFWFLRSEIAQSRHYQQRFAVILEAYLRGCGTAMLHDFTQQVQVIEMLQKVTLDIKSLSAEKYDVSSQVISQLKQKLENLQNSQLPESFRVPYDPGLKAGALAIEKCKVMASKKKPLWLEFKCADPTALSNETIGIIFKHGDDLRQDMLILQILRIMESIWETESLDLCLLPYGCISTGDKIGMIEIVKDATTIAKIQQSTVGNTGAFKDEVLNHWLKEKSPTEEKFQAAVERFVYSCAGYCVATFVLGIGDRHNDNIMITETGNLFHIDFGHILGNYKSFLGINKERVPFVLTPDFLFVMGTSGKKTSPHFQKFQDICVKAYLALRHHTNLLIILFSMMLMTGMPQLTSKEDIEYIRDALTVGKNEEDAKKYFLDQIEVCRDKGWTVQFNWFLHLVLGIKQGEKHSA

Structure (SMILES) | IC50
COc1ccc(-c2c3ccccc3cc3c(=O)nc(N4CCOCC4)oc23)cc1 | > 50 µM
O=c1nc(N2CCOCC2)oc2c(-c3ccccc3)c3ccccc3cc12 | > 50 µM

Molecular target: T4, Phosphatidylinositol 4,5-bisphosphate 3-kinase catalytic subunit gamma isoform
Assay: Inhibition of p110gamma (unknown origin) assessed as decrease in ATP consumption at 10 uM after 60 mins by Kinase-Glo assay relative to control
Target sequence in this assay (P48736 whole entry, looked up, canonical isoform): as the sequence (P48736 whole entry, canonical isoform) above

Structure (SMILES) | inhibition
O=c1nc(N2CCOCC2)oc2ccc3cc(-c4ccc(Cl)cc4)ccc3c12 | 0%
COc1ccc(-c2cc3c(=O)nc(N4CCOCC4)oc3c3ccccc23)cc1 | 17%
O=c1nc(N2CCOCC2)oc2c1cc(-c1ccccc1)c1ccccc12 | 34%
O=c1nc(N2CCOCC2)oc2c1cc(-c1cccc3c1sc1ccccc13)c1ccccc12 | 12%
O=c1nc(N2CCOCC2)oc2c(-c3ccc(Cl)cc3)c3ccccc3cc12 | 3%
O=c1nc(N2CCOCC2)oc2c1ccc1ccccc12 | 4%
COc1ccc(-c2ccc3c(ccc4oc(N5CCOCC5)nc(=O)c43)c2)cc1 | -2%
O=c1nc(N2CCOCC2)oc2ccc3cc(-c4ccccc4)ccc3c12 | 1%
O=c1nc(N2CCOCC2)oc2ccc3ccccc3c12 | 2%
O=c1nc(N2CCOCC2)oc2c1cc(-c1cccc3c1oc1ccccc13)c1ccccc12 | 24%

Molecular target: T5, Phosphatidylinositol 4,5-bisphosphate 3-kinase catalytic subunit alpha isoform (Homo sapiens, UniProt P42336)
T5 sequence (P42336 whole entry, canonical isoform): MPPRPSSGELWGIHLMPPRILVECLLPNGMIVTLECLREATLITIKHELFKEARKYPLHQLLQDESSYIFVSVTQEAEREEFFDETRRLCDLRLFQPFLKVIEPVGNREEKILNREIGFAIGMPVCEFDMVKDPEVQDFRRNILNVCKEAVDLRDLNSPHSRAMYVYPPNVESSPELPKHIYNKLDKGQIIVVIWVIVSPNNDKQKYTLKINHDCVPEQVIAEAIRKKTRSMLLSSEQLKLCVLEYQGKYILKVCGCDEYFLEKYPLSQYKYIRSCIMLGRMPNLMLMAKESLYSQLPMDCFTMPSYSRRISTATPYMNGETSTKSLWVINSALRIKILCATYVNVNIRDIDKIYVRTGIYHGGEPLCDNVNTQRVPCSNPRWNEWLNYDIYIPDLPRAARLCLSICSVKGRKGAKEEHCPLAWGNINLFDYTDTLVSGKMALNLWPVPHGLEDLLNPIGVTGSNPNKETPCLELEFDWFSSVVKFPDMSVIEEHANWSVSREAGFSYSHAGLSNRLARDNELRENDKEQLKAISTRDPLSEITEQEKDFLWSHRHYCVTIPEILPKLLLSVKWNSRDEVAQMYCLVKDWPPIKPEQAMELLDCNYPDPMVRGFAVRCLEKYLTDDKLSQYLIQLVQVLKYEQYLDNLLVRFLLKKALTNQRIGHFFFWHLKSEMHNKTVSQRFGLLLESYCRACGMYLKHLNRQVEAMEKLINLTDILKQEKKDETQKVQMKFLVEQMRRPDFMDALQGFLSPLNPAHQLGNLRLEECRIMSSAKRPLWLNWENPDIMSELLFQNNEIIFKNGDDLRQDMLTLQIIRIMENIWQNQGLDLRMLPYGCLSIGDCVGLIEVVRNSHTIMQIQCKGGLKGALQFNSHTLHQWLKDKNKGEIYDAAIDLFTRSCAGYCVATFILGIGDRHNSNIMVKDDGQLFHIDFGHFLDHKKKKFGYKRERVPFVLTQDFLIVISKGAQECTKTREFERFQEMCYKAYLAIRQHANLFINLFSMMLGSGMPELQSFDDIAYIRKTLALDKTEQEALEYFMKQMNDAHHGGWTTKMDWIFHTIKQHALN
Assay: Inhibition of p110alpha (unknown origin) assessed as decrease in ATP consumption at 10 uM after 60 mins by Kinase-Glo assay relative to control

Structure (SMILES) | inhibition
O=c1nc(N2CCOCC2)oc2ccc3cc(-c4ccc(Cl)cc4)ccc3c12 | -5%
COc1ccc(-c2cc3c(=O)nc(N4CCOCC4)oc3c3ccccc23)cc1 | 20%
O=c1nc(N2CCOCC2)oc2c1cc(-c1ccccc1)c1ccccc12 | 35%
O=c1nc(N2CCOCC2)oc2c1cc(-c1cccc3c1sc1ccccc13)c1ccccc12 | 23%
O=c1nc(N2CCOCC2)oc2c(-c3ccc(Cl)cc3)c3ccccc3cc12 | 8%
O=c1nc(N2CCOCC2)oc2c1ccc1ccccc12 | 22%
COc1ccc(-c2ccc3c(ccc4oc(N5CCOCC5)nc(=O)c43)c2)cc1 | 0%
O=c1nc(N2CCOCC2)oc2ccc3cc(-c4ccccc4)ccc3c12 | -2%
O=c1nc(N2CCOCC2)oc2ccc3ccccc3c12 | 4%
O=c1nc(N2CCOCC2)oc2c1cc(-c1cccc3c1oc1ccccc13)c1ccccc12 | 9%

Molecular target: cGMP-inhibited 3',5'-cyclic phosphodiesterase 3A (Homo sapiens) (UniProt Q14432)
Sequence (Q14432 whole entry): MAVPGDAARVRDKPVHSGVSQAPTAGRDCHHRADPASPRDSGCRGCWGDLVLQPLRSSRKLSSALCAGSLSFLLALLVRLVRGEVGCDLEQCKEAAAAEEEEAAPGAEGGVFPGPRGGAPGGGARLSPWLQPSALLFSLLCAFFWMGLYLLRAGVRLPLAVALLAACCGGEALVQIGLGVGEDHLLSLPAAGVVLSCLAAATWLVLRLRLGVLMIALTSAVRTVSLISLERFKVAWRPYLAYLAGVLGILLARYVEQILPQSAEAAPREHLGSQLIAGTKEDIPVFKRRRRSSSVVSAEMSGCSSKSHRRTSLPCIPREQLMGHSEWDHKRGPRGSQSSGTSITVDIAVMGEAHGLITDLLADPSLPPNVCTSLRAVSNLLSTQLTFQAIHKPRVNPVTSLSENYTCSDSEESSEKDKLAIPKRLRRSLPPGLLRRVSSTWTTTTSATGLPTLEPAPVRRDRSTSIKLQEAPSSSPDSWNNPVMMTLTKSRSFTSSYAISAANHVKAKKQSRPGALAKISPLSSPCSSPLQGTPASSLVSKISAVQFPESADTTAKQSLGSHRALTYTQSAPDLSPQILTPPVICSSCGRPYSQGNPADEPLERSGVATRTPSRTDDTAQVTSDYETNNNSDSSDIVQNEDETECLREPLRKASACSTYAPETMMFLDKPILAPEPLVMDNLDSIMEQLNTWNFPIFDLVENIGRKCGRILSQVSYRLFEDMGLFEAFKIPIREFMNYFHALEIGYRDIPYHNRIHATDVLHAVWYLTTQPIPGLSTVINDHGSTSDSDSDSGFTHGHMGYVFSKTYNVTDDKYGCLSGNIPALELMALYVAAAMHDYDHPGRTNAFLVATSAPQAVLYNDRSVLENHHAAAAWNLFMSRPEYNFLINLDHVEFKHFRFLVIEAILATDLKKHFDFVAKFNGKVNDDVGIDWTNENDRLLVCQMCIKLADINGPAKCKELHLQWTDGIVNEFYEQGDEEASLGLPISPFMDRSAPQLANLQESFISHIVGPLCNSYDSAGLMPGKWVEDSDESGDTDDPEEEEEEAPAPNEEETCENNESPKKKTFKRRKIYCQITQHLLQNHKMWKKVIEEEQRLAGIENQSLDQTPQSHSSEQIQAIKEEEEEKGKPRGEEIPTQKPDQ
Assay: Inhibition of PDE3A (unknown origin) at 10 uM relative to control

Structure (SMILES) | inhibition
O=c1nc(N2CCOCC2)oc2ccc3cc(-c4ccc(Cl)cc4)ccc3c12 | -4%
O=c1nc(N2CCOCC2)oc2ccc3cc(-c4cccc5c4sc4ccccc45)ccc3c12 | 5%
COc1ccc(-c2cc3c(=O)nc(N4CCOCC4)oc3c3ccccc23)cc1 | 26%
O=c1nc(N2CCOCC2)oc2c1cc(-c1ccc(Cl)cc1)c1ccccc12 | 1%
O=c1nc(N2CCOCC2)oc2c1cc(-c1ccccc1)c1ccccc12 | 15%
O=c1nc(N2CCOCC2)oc2c1cc(-c1ccsc1)c1ccccc12 | 22%
O=c1nc(N2CCOCC2)oc2c1cc(-c1cccs1)c1ccccc12 | 32%
O=c1nc(N2CCOCC2)oc2ccc3cc(-c4cccc5c4oc4ccccc45)ccc3c12 | 12%
Nc1cccc(-c2cc3c(=O)nc(N4CCOCC4)oc3c3ccccc23)c1 | -3%
COc1ccc(-c2c3ccccc3cc3c(=O)nc(N4CCOCC4)oc23)cc1 | 6%
O=c1nc(N2CCOCC2)oc2c1cc(-c1cccc3c1sc1ccccc13)c1ccccc12 | 30%
O=c1nc(N2CCOCC2)oc2c(-c3ccc(Cl)cc3)c3ccccc3cc12 | 24%
O=c1nc(N2CCOCC2)oc2c1cc(/C=C/c1ccccc1)c1ccccc12 | 18%
COc1ccc(-c2ccc3c(ccc4oc(N5CCOCC5)nc(=O)c43)c2)cc1 | 18%
NC(=O)c1ccc(-c2cc3c(=O)nc(N4CCOCC4)oc3c3ccccc23)cc1 | 7%
O=c1nc(N2CCOCC2)oc2ccc3cc(-c4ccccc4)ccc3c12 | 13%
O=c1nc(N2CCOCC2)oc2c1cc(-c1cccc3ccccc13)c1ccccc12 | 26%
O=c1nc(N2CCOCC2)oc2c(-c3ccccc3)c3ccccc3cc12 | 32%
O=c1nc(N2CCOCC2)oc2c1cc(-c1ccc(CO)cc1)c1ccccc12 | 35%
O=c1nc(N2CCOCC2)oc2c1cc(-c1cccc3c1oc1ccccc13)c1ccccc12 | 11%

Molecular target: DNA-PK/Ku70/Ku85 (Homo sapiens) (UniProt P78527+P12956+P13010)
Assay: Inhibition of human DNA-PK/Ku70/Ku85 at 10 uM using EPPLSQEAFADLWKK as substrate by HTRF assay relative to control

Structure (SMILES) | inhibition
O=c1nc(N2CCOCC2)oc2ccc3cc(-c4ccc(Cl)cc4)ccc3c12 | 8.1%
O=c1nc(N2CCOCC2)oc2ccc3cc(-c4cccc5c4sc4ccccc45)ccc3c12 | 0%
COc1ccc(-c2cc3c(=O)nc(N4CCOCC4)oc3c3ccccc23)cc1 | 19%
O=c1nc(N2CCOCC2)oc2c1cc(-c1ccc(Cl)cc1)c1ccccc12 | 11%
O=c1nc(N2CCOCC2)oc2c1cc(-c1ccccc1)c1ccccc12 | 22%
O=c1nc(N2CCOCC2)oc2c1cc(-c1ccsc1)c1ccccc12 | 22%
O=c1nc(N2CCOCC2)oc2c1cc(-c1cccs1)c1ccccc12 | 34%
O=c1nc(N2CCOCC2)oc2ccc3cc(-c4cccc5c4oc4ccccc45)ccc3c12 | 0%
O=c1nc(N2CCOCC2)oc2c1cc(-c1cccc3c1sc1ccccc13)c1ccccc12 | 0%
O=c1nc(N2CCOCC2)oc2c1cc(/C=C/c1ccccc1)c1ccccc12 | 5.9%
NC(=O)c1ccc(-c2cc3c(=O)nc(N4CCOCC4)oc3c3ccccc23)cc1 | 10%
O=c1nc(N2CCOCC2)oc2ccc3cc(-c4ccccc4)ccc3c12 | 0%
O=c1nc(N2CCOCC2)oc2c1cc(-c1cccc3ccccc13)c1ccccc12 | 10%
O=c1nc(N2CCOCC2)oc2c1cc(-c1cccc3c1oc1ccccc13)c1ccccc12 | 24%

Molecular target: T5, Phosphatidylinositol 4,5-bisphosphate 3-kinase catalytic subunit alpha isoform
Assay: Inhibition of p110alpha (unknown origin) assessed as decrease in ATP consumption after 60 mins by Kinase-Glo assay

Structure (SMILES) | IC50
COc1ccc(-c2c3ccccc3cc3c(=O)nc(N4CCOCC4)oc23)cc1 | > 50 µM
O=c1nc(N2CCOCC2)oc2c(-c3ccccc3)c3ccccc3cc12 | 43.8 µM

Molecular target: T2, Phosphatidylinositol 4,5-bisphosphate 3-kinase catalytic subunit beta isoform
Assay: Inhibition of p110beta (unknown origin) assessed as decrease in ATP consumption at 10 uM after 60 mins by Kinase-Glo assay relative to control
Target sequence in this assay (P42338 whole entry, looked up, canonical isoform): as the sequence (P42338 whole entry, canonical isoform) above

Structure (SMILES) | inhibition
O=c1nc(N2CCOCC2)oc2ccc3cc(-c4ccc(Cl)cc4)ccc3c12 | -1%
COc1ccc(-c2cc3c(=O)nc(N4CCOCC4)oc3c3ccccc23)cc1 | 42%
O=c1nc(N2CCOCC2)oc2c1cc(-c1ccccc1)c1ccccc12 | 10%
O=c1nc(N2CCOCC2)oc2c1cc(-c1cccc3c1sc1ccccc13)c1ccccc12 | 11%
O=c1nc(N2CCOCC2)oc2c(-c3ccc(Cl)cc3)c3ccccc3cc12 | 0%
O=c1nc(N2CCOCC2)oc2c1ccc1ccccc12 | 15%
COc1ccc(-c2ccc3c(ccc4oc(N5CCOCC5)nc(=O)c43)c2)cc1 | 0%
O=c1nc(N2CCOCC2)oc2ccc3cc(-c4ccccc4)ccc3c12 | -3%
O=c1nc(N2CCOCC2)oc2ccc3ccccc3c12 | 23%
O=c1nc(N2CCOCC2)oc2c1cc(-c1cccc3c1oc1ccccc13)c1ccccc12 | 22%

System: not listed separately
Assay: Antiplatelet activity in human platelet rich plasma assessed as inhibition of collagen-induced platelet aggregation preincubated for 2 mins followed by collagen addition by two-channel platelet aggregometer
Assay type: functional

Structure (SMILES) | IC50
COc1ccc(-c2cc3c(=O)nc(N4CCOCC4)oc3c3ccccc23)cc1 | 14 µM
O=c1nc(N2CCOCC2)oc2c1cc(-c1ccccc1)c1ccccc12 | 3 µM
COc1ccc(-c2c3ccccc3cc3c(=O)nc(N4CCOCC4)oc23)cc1 | > 80 µM
O=c1nc(N2CCOCC2)oc2c1cc(-c1cccc3c1sc1ccccc13)c1ccccc12 | 5 µM
O=c1nc(N2CCOCC2)oc2c(-c3ccc(Cl)cc3)c3ccccc3cc12 | > 80 µM
O=c1nc(N2CCOCC2)oc2c1ccc1ccccc12 | > 80 µM
O=c1nc(N2CCOCC2)oc2c(-c3ccccc3)c3ccccc3cc12 | > 80 µM
O=c1nc(N2CCOCC2)oc2ccc3ccccc3c12 | > 80 µM
O=c1nc(N2CCOCC2)oc2c1cc(-c1cccc3c1oc1ccccc13)c1ccccc12 | 2 µM

Molecular target: DNA-PK/Ku70/Ku85 (Homo sapiens, UniProt P12956+P13010+P78527)
Assay: Inhibition of human DNA-PK/Ku70/Ku85 using EPPLSQEAFADLWKK as substrate by HTRF assay relative to control

Structure (SMILES) | IC50
COc1ccc(-c2c3ccccc3cc3c(=O)nc(N4CCOCC4)oc23)cc1 | 11.9 µM
O=c1nc(N2CCOCC2)oc2c(-c3ccc(Cl)cc3)c3ccccc3cc12 | > 100 µM
O=c1nc(N2CCOCC2)oc2c1ccc1ccccc12 | 10 µM
O=c1nc(N2CCOCC2)oc2c(-c3ccccc3)c3ccccc3cc12 | 78.1 µM
O=c1nc(N2CCOCC2)oc2ccc3ccccc3c12 | 38.8 µM
